The target of one data set is T1, 17β-HSD1 (Homo sapiens, UniProt P14061).
T1 construct: endogenous in cells; host or cells: T-47D
T1 sequence (P14061 1-328): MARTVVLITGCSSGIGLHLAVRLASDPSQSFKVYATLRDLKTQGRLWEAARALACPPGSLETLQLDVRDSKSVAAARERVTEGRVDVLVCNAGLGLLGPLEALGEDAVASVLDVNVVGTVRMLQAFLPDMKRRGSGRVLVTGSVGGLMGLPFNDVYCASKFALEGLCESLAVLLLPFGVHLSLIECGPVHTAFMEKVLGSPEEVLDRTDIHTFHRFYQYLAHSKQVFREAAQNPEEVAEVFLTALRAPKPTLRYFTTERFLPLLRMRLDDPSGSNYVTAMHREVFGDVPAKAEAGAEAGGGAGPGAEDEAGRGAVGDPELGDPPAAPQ
The data set is described as follows: Inhibition of 17β-HSD1 in T-47D intact cells (E1 into E2). Type of data set: cell-based. The note with it: for inhibition at 0.01 µM: read-out: Inhibition % (0.01 μM). The method, boiled down: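 Intact T-47D cells in medium with insulin and 5% charcoal-stripped FBS were incubated with inhibitor (0.1% ethanol) and 60 nM [14C]-estrone, in triplicate. Steroids were ether-extracted and separated by TLC, and [14C]-E1 to E2 conversion was quantified by radioimaging.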

For a further data set, the system named is MCF-7 cells. The data set is described as follows: Estrogenic activity in MCF-7 cells. Type of data set: cell-based, human. The note with it: 7 days, concentrations up to 5 μM. The protocol: MCF-7 cells were seeded with medium supplemented with insulin (50 ng/mL) and 5% dextran-coated charcoal treated FBS rather than 10% FBS to remove remaining hormones. Aliquots (100 μL) of the cell suspension were seeded in 96-well plates (3000 cells/well). […] Cells were grown either in the absence or presence of the compounds over a period of 7 days. Quantification of cell growth was determined by using the CellTiter 96®Aqueous Solution Cell Proliferation Assay (Promega, Nepean, ON, Canada) following the manufacturer's instructions. To determine the proliferative (estrogenic) activity, the cells were grown in the absence (control fixed as 100%) or presence of the tested compounds at the indicated concentrations.

A further data set deals with T2, CYP3A4 (Homo sapiens, UniProt P08684).
T2 construct: purchased BD Biosciences
The data set is described as follows: Inhibition of CYP3A4 (P450 Inhibition Kit CYP3A4/DBF). Type of data set: in vitro ADME.

A short description of data set [1]: Plasma concentration of inhibitor after a single subcutaneous injection. The note with it: rat, in vivo, sc. The protocol: Six week-old male Sprague-Dawley rats weighing approximately 220 g were obtained from Charles-River, Inc. (St-Constant, Qc., Canada). The animals were housed 3 per cage. A pharmacokinetic study was carried out following one subcutaneous (s.c.) injection of the inhibitor at one concentration (2.3 mg/kg of body weight in 0.5 mL of vehicle fluid). The inhibitor was first dissolved in ethanol (EtOH) and thereafter we added propylene glycol (PG) to obtain a final concentration of EtOH of 8%. During this experiment, the rats were housed individually and were fasted for 8 h before inhibitor injection but allowed free access to water. Blood samples for determination of inhibitor plasma concentration were collected at the jugular vein (0.4 mL by animal) at target intervals of 3, 7, 12 and 24 h post-dose for Compound V and 3 and 12 h for CC-156, from three rats per time point. After the collection at 7 h, a replacement fluid (0.9% sodium chloride injection USP) was injected in the rat. Blood samples were collected into Microvette potassium-EDTA (ethylenediamine tetraacetic acid)-coated tube (Sarstedt, Aktiegesellchaft & Co, Germany) and centrifuged at 3200 rpm for 10 minutes at 4° C. The plasma was collected and stored at −80° C. until analyzed by liquid chromatography/mass spectrometry/mass spectrometry (LC/MS/MS) analysis.
The concentration of the inhibitors (Compounds I and V) was determined by LC/MS/MS analysis using a procedure developed at CHUQ (CHUL)-Research Center (Québec, Qc, Canada). Briefly, for extraction from serum, 100 μL of serum sample is transferred to individual tubes and 600 μL of ammonium acetate (1 mM) is added. A methanolic solution (50 μL) containing a steroidal internal standard is then added to each tube. Samples are transferred on Strata-X SPE columns (Phenomenex, Torrance, Calif., USA), which have been conditioned with 2 mL of methanol and 2 mL of water. Each column is washed with 2 mL of methanol:water (10:90, v/v). The inhibitor is then eluted with 5 mL of methanol containing 5 mM ammonium acetate. Methanol is evaporated at 45° C. under inert atmosphere and the residue dissolved in 100 μL of methanol:water (85:15, v/v). For the steroid analysis, the HPLC system uses a 75×4.6-mm, 3 μm reversed-phase Luna Phenyl-Hexyl column (Phenomenex, Torrance, Calif., USA) at a flow rate of 0.8 mL/min. The inhibitor is detected using an API 3000 mass spectrometer, equipped with TurbolonSpray (Applied Biosystems, Canada). ESI in positive ion mode was used. The area under the curve (AUC) was calculated using the linear trapezoidal rule.

Each structure is given as a SMILES string. Read-outs that look alike come from different tables or passages of the source.

T2 sequence (P08684 whole entry): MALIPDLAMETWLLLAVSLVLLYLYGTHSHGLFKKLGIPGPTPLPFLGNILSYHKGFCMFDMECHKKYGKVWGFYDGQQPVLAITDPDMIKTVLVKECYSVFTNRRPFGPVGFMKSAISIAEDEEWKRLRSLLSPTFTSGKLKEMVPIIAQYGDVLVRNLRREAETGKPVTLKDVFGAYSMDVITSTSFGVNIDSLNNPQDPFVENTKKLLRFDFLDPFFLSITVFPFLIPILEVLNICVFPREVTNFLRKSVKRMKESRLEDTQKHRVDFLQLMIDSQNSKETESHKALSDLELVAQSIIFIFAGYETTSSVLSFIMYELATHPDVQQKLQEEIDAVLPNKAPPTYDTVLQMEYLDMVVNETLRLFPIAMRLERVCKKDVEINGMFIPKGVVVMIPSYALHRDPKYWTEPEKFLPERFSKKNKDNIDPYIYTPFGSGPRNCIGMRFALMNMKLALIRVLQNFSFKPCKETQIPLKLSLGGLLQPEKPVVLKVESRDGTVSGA

With `C[C@]12CC[C@@H]3c4ccc(O)cc4CC[C@H]3[C@@H]1C[C@H](Cc1cccc(C(N)=O)c1)[C@@H]2O` [Compound I, 16β-(m-carbamoylbenzyl)estradiol, reference compound], on 17β-HSD1 (T47D, [14C]-E1 (60 nM) into [14C]-E2, T-47D intact cells, 0.01 μM), the inhibition – broadly, the change of the read-out against control, counted positive when it falls – at 0.01 µM came to 35%. The inhibition at 0.1 µM on 17β-HSD1 (T47D, [14C]-E1 (60 nM) into [14C]-E2, T-47D intact cells, 0.1 μM, read-out: Inhibition % (0.1 μM)) turned out to be 66%. Moreover, the “estrogenic activity on MCF-7 cells (FIG. 1)” value with MCF-7 cells is “strongly stimulated the estrogen sensitive MCF-7 cells”. Besides, the IC50 (commonly the midpoint of a concentration-inhibition curve) at CYP3A4 (read-out: IC50 on CYP3A4) was 1520 ± 290 nM. The “time at which maximum plasma concentration (Cmax) was attained” value in data set [1] (2.3 mg/kg) was found to be 3 h.
Regarding `C[C@]12CC[C@@H]3c4ccc(CCBr)cc4CC[C@H]3[C@@H]1C[C@H](Cc1cccc(C(N)=O)c1)[C@@H]2O` [Compound V, 3-{[(16β,17β)-3-(2-bromoethyl)-17-hydroxyestra-1(10),2,4-trien-16-yl]methyl}benzamide], the inhibition at 0.01 µM at 17β-HSD1 (T47D) is 23%. Further, the inhibition at 0.1 µM on 17β-HSD1 (T47D, read-out: Inhibition % (0.1 μM)) worked out at 49%; on 17β-HSD1 (T47D, read-out: Inhibition (0.1 μM)), 56%. Also, the inhibition at 1 µM on 17β-HSD1 (T47D, read-out: Inhibition (1 μM)) turned out to be 89%. For the same molecule, the IC50 was 68 nM on 17β-HSD1 (T-47D intact cells, [14C]-E1 60 nM) and 4060 ± 570 nM against CYP3A4. For the same molecule, in the data set on MCF-7 cells, the “estrogenic activity on MCF-7 cells (FIG. 1)” value was “no estrogenicity”. In data set [1] (male, Sprague-Dawley, s.c. 2.3 mg/kg, 7 h), the concentration at 7 h turned out to be 73.8 ng/mL. The molecule also had a concentration at 12 h in data set [1] (male, Sprague-Dawley, s.c. 2.3 mg/kg, 12 h) of 50.7 ng/mL. The molecule further returned a concentration at 24 h in data set [1] (male, Sprague-Dawley, s.c. 2.3 mg/kg, 24 h) of 11.7 ng/mL. Further, the AUC(0-t) in data set [1] (male, Sprague-Dawley, s.c. 2.3 mg/kg, read-out: AUC0-24 h) is 1150 ng·h/mL.

The values above are taken from patent US11072632B2, “Inhibitors of 17β-HSD1, 17β-HSD3 and 17β-HSD10” (UNIVERSITÉ LAVAL, priority 2011, dated 2021).
